Activity calls are given as the source filed them. The calls are words filed in the database; no cut-off is given here.
Assays:
HEL [1] = test: Inhibition of JAK/STAT phosphorylation in HEL cells assessed as reduction in STAT5 phosphorylation at 1 uM irradiated with 450 nm light by Western blot analysis relative to control; assay type: cell-based; conditions: Homo sapiens
[2] = Prodrug release in HEL cells assessed as 3-cyclopropyl-1-(3-{5-[(morpholin-4-yl)methyl]-1H-1,3-benzodiazol-2-yl}-1H-pyrazol-4-yl)urea formation at 1 uM illuminated with 405 nm light for 10 mins and measured after 6 hrs by LC-MS/MS analysis; assay type: ADME, cell-based; conditions: human, 6.167 h, time 370 min
HEL [3] = test: Inhibition of JAK/STAT phosphorylation in HEL cells assessed as reduction in STAT3 phosphorylation at 1 uM incubated under dark condition by Western blot analysis relative to control; assay type: cell-based; conditions: Homo sapiens
[4] = Prodrug release in HEL cells assessed as N-tert-butyl-3-[[5-methyl-2-(4-piperazin-1-ylanilino)pyrimidin-4-yl]amino]benzenesulfonamide formation at 1 uM illuminated with 405 nm light for 10 mins and measured after 6 hrs by LC-MS/MS analysis; assay type: ADME, cell-based; conditions: human, 6.167 h, time 370 min
[5] = Stability of compound in PBS measured after 24 hrs; assay type: physicochemical; conditions: PBS, read-out: Stability
[6] = Stability of compound in mouse plasma measured after 24 hrs; assay type: ADME, cell-free; conditions: read-out: Stability
[7] = Prodrug release in HEL cells assessed as N-tert-butyl-3-[[5-methyl-2-(4-piperazin-1-ylanilino)pyrimidin-4-yl]amino]benzenesulfonamide formation at 1 uM incubated under dark condition for 6 hrs by LC-MS/MS analysis; assay type: ADME, cell-based; conditions: human
[8] = Stability of compound in human plasma measured after 24 hrs; assay type: ADME, cell-free; conditions: read-out: Stability
HEL [9] = test: Inhibition of JAK/STAT phosphorylation in HEL cells assessed as reduction in STAT5 phosphorylation at 1 uM incubated under dark condition by Western blot analysis relative to control; assay type: cell-based; conditions: Homo sapiens
[10] = Prodrug release in HEL cells assessed as 3-cyclopropyl-1-(3-{5-[(morpholin-4-yl)methyl]-1H-1,3-benzodiazol-2-yl}-1H-pyrazol-4-yl)urea formation at 1 uM incubated under dark condition for 6 hrs by LC-MS/MS analysis; assay type: ADME, cell-based; conditions: human
HEL [11] = test: Cytotoxicity against HEL cells assessed as inhibition of cell growth incubated under dark condition; assay type: functional, cell-based; conditions: Homo sapiens
HEL [12] = test: Cytotoxicity against HEL cells assessed as inhibition of cell growth irradiated with 450 nm light; assay type: functional, cell-based; conditions: Homo sapiens, light or radiation study
HEL [13] = test: Inhibition of JAK/STAT phosphorylation in HEL cells assessed as reduction in STAT3 phosphorylation at 1 uM irradiated with 450 nm light by Western blot analysis relative to control; assay type: cell-based; conditions: Homo sapiens
[14] = Cytotoxicity against HUVEC cells assessed as inhibition of cell growth; assay type: toxicity, cell-based; conditions: human
BaF3 = test: Cytotoxicity against mouse BaF3 cells harboring EPOR JAK2 V617F mutant measured after 24 hrs by XTT assay; assay type: functional, cell-based; conditions: BaF3, 24 h
HEL [15] = test: Cytotoxicity against HEL cells assessed as inhibition of cell growth incubated under normoxic condition in presence of N-tert-butyl-3-[[5-methyl-2-(4-piperazin-1-ylanilino)pyrimidin-4-yl]amino]benzenesulfonamide; assay type: functional, cell-based; conditions: Homo sapiens
HEL [16] = test: Antitumor activity against HEL cells xenografted in Balb/c nude mouse assessed as induction of apoptosis in tumor at 25 mg/kg, ip administered once daily for 14 consecutive days in presence of N-tert-butyl-3-[[5-methyl-2-(4-piperazin-1-ylanilino)pyrimidin-4-yl]amino]benzenesulfonamide by TUNEL assay relative to control; assay type: functional, organism-based; conditions: Homo sapiens, time 14.0 day
HEL [17] = test: Cytotoxicity against HEL cells assessed as inhibition of cell growth; assay type: functional, cell-based; conditions: Homo sapiens
HEL [18] = test: Antitumor activity against HEL cells xenografted in Balb/c nude mouse assessed as tumor growth inhibition at 25 mg/kg, ip administered once daily for 14 consecutive days in presence of N-tert-butyl-3-[[5-methyl-2-(4-piperazin-1-ylanilino)pyrimidin-4-yl]amino]benzenesulfonamide relative to control; assay type: functional, Homo sapiens; conditions: 336 h, time 14 day, read-out: TGI
HEL [19] = test: Cytotoxicity against HEL cells assessed as inhibition of cell growth irradiated with 450 nm light and incubated in presence of N-tert-butyl-3-[[5-methyl-2-(4-piperazin-1-ylanilino)pyrimidin-4-yl]amino]benzenesulfonamide; assay type: functional, cell-based; conditions: Homo sapiens, light or radiation study
HEL [20] = test: Cytotoxicity against HEL cells assessed as inhibition of cell growth incubated under normoxic condition in presence of 3-cyclopropyl-1-(3-{5-[(morpholin-4-yl)methyl]-1H-1,3-benzodiazol-2-yl}-1H-pyrazol-4-yl)urea; assay type: functional, cell-based; conditions: Homo sapiens
HEL [21] = test: Antitumor activity against HEL cells xenografted in Balb/c nude mouse assessed as tumor growth inhibition at 25 mg/kg, ip administered once daily for 14 consecutive days relative to control; assay type: functional, Homo sapiens; conditions: 336 h, time 14 day, read-out: TGI
HEL [22] = test: Cytotoxicity against HEL cells assessed as inhibition of cell growth incubated under dark condition in presence of N-tert-butyl-3-[[5-methyl-2-(4-piperazin-1-ylanilino)pyrimidin-4-yl]amino]benzenesulfonamide; assay type: functional, cell-based; conditions: Homo sapiens
HEL [23] = test: Cytotoxicity against HEL cells assessed as inhibition of cell growth incubated under hypoxic condition in presence of N-tert-butyl-3-[[5-methyl-2-(4-piperazin-1-ylanilino)pyrimidin-4-yl]amino]benzenesulfonamide; assay type: functional, cell-based; conditions: Homo sapiens

CCN(CC)c1ccc2c(COC(=O)Oc3c(COC(=O)N4CCN(c5ccc(Nc6ncc(C)c(Nc7cccc(S(=O)(=O)NC(C)(C)C)c7)n6)cc5)CC4)cc(C)cc3COC(=O)n3cc(NC(=O)NC4CC4)c(-c4nc5cc(CN6CCOCC6)ccc5[nH]4)n3)cc(=O)oc2c1
inhibition (HEL [1]): 100% | Drug metabolism [2]: Metabolite_Detected | inhibition (HEL [3]): inactive | Drug metabolism [4]: Metabolite_Detected | remaining at 24 h [5]: > 95.1% | remaining at 24 h [6]: > 82.8% | Drug metabolism [7]: Metabolite_Notdetected | remaining at 24 h [8]: > 78.3% | inhibition (HEL [9]): inactive | Drug metabolism [10]: Metabolite_Notdetected | IC50 (HEL [11]): > 200000 nM | IC50 (HEL [12]): 1810 nM | inhibition (HEL [13]): 100% | IC50 [14]: > 200000 nM

Cc1cnc(Nc2ccc(N3CCN(C)CC3)cc2)nc1Nc1cccc(S(=O)(=O)NC(C)(C)C)c1
IC50 (BaF3): 170 nM

O=C(Nc1c[nH]nc1-c1nc2ccc(CN3CCOCC3)cc2[nH]1)NC1CC1 [AT-9283]
IC50 (HEL [15]): 650 nM | Activity (HEL [16]): Active | IC50 (HEL [17]): 1040 nM | inhibition in vivo at 25 mg/kg (HEL [18]): 91.2% | IC50 (HEL [19]): 2180 nM | IC50 (HEL [20]): 650 nM | inhibition in vivo at 25 mg/kg (HEL [21]): 85.9% | IC50 (HEL [22]): 1410 nM | IC50 (HEL [23]): 1340 nM

CC[C@@](C)(Nc1ccnc(-c2c[nH]c3ncccc23)n1)C(=O)NCC(F)(F)F [DECERNOTINIB]
IC50 (HEL [17]): 2560 nM

Reference: ChEMBL document CHEMBL5385890, “A JAK tyrosine kinase and pseudokinase Co-inhibition strategy combines enhanced potency and on-demand activation” (Eur J Med Chem, 2023)
